{"source": "ChEMBL document CHEMBL1134781", "about": "“1,2-Benzothiazine 1,1-dioxide P(2)-P(3) peptide mimetic aldehyde calpain I inhibitors” (J Med Chem, 2001)", "key": {"MOLT-4": {"target": "MOLT-4", "test": "Inhibitory concentration against MOLT-4 cells (human T-cell leukemia cell line)"}, "[1]": {"target": "T1, Calpain-1 catalytic subunit (Homo sapiens, UniProt P07384)", "T1 sequence (P07384 whole entry)": "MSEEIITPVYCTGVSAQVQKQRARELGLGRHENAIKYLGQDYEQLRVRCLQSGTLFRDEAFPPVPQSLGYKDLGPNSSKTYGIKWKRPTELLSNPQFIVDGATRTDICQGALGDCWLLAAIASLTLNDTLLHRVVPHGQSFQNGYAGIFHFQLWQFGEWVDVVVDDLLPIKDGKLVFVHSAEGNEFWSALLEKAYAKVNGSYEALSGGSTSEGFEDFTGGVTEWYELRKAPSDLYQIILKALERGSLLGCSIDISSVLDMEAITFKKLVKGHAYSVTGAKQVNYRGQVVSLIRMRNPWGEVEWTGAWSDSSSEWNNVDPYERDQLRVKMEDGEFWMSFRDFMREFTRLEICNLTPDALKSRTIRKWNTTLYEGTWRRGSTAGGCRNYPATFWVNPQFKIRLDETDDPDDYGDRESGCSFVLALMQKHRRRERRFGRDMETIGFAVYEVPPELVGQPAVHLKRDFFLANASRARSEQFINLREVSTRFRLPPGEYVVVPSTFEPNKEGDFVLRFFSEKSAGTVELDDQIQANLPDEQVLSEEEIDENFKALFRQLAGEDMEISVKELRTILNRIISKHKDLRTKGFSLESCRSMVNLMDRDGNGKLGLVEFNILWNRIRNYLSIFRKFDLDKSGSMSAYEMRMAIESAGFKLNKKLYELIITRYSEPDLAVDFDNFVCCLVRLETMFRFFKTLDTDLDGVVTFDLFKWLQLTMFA", "test": "(§1) Inhibitory activity towards human calpain I"}, "[2]": {"target": "T1, Calpain-1 catalytic subunit", "test": "Inhibitory activity against calpain-I"}, "[3]": {"target": "T1, Calpain-1 catalytic subunit", "test": "as §1", "remark": "listed apart in the source"}, "[4]": {"target": "T1, Calpain-1 catalytic subunit", "test": "Compound was evaluated for inhibitory activity towards human calpain I isomer 1"}}, "data": [{"smiles": "CN1C(C(=O)N[C@H](C=O)Cc2ccccc2)Cc2cc(N3CCOCC3)ccc2S1(=O)=O", "note": "(stereo partly specified)", "values": [{"measurement": "IC50", "setting": "MOLT-4", "value": 4100, "unit": "nM"}, {"measurement": "IC50", "setting": "[1]", "value": 500, "unit": "nM"}]}, {"smiles": "CN1C(C(=O)N[C@H](C=O)Cc2ccccc2)Cc2cc(Cl)ccc2S1(=O)=O", "note": "(stereo partly specified)", "values": [{"measurement": "IC50", "setting": "MOLT-4", "value": 2200, "unit": "nM"}]}, {"smiles": "CS(=O)(=O)NC(COCc1ccccc1)C(=O)N[C@H](C=O)Cc1ccccc1", "note": "(stereo partly specified)", "values": [{"measurement": "IC50", "setting": "[2]", "value": 11, "unit": "nM"}]}, {"smiles": "COC1=C(C(=O)N[C@H](C=O)Cc2ccccc2)N(C)S(=O)(=O)c2ccccc21", "values": [{"measurement": "IC50", "setting": "MOLT-4", "value": 3200, "unit": "nM"}]}, {"smiles": "CC(C)CN1C(C(=O)N[C@H](C=O)Cc2ccccc2)Cc2cc(Cl)ccc2S1(=O)=O", "note": "(stereo partly specified)", "values": [{"measurement": "IC50", "setting": "[1]", "value": 200, "unit": "nM"}, {"measurement": "IC50", "setting": "[3]", "value": 200, "unit": "nM"}]}, {"smiles": "O=C[C@H](Cc1ccccc1)NC(=O)C1Cc2ccccc2C(=O)N1", "note": "(stereo partly specified)", "values": [{"measurement": "IC50", "setting": "[4]", "value": "~5000", "unit": "nM"}]}, {"smiles": "COc1cc2c(cc1OC)S(=O)(=O)NC(C(=O)N[C@H](C=O)Cc1ccccc1)C2", "note": "(stereo partly specified)", "values": [{"measurement": "IC50", "setting": "[1]", "value": 800, "unit": "nM"}, {"measurement": "IC50", "setting": "[3]", "value": 700, "unit": "nM"}]}, {"smiles": "CN1C(C(=O)N[C@H](C=O)Cc2ccccc2)=Cc2cc3c(cc2S1(=O)=O)OCCO3", "values": [{"measurement": "IC50", "setting": "MOLT-4", "value": 900, "unit": "nM"}]}, {"smiles": "CN1C(=O)c2ccccc2CC1C(=O)N[C@H](C=O)Cc1ccccc1", "note": "(stereo partly specified)", "values": [{"measurement": "IC50", "setting": "[4]", "value": 85, "unit": "nM"}, {"measurement": "IC50", "setting": "[1]", "value": "~1000", "unit": "nM"}]}, {"smiles": "COc1cc2c(cc1OC)S(=O)(=O)N(Cc1ccccc1)C(C(=O)N[C@H](C=O)Cc1ccccc1)C2", "note": "(stereo partly specified)", "values": [{"measurement": "IC50", "setting": "[1]", "value": 1000, "unit": "nM"}]}, {"smiles": "COc1cc2c(cc1OC)S(=O)(=O)N(C)C(C(=O)N[C@H](C=O)Cc1ccccc1)C2", "note": "(stereo partly specified)", "values": [{"measurement": "IC50", "setting": "MOLT-4", "value": 1900, "unit": "nM"}]}, {"smiles": "CN1C(C(=O)N[C@H](C=O)CCCCNS(=O)(=O)c2ccccc2)Cc2cc3c(cc2S1(=O)=O)OCCO3", "note": "(stereo partly specified)", "values": [{"measurement": "IC50", "setting": "MOLT-4", "value": 1800, "unit": "nM"}]}, {"smiles": "CN1C(C(=O)N[C@H](C=O)Cc2ccccc2)Cc2ccccc2S1(=O)=O", "note": "(stereo partly specified)", "values": [{"measurement": "IC50", "setting": "MOLT-4", "value": 1700, "unit": "nM"}]}, {"smiles": "O=C[C@H](Cc1ccccc1)NC(=O)C(Cc1ccccc1)NS(=O)(=O)c1ccccc1", "note": "(stereo partly specified)", "values": [{"measurement": "IC50", "setting": "[2]", "value": 20, "unit": "nM"}]}, {"smiles": "CC(C)N1C(C(=O)N[C@H](C=O)Cc2ccccc2)Cc2cc3c(cc2S1(=O)=O)OCCO3", "note": "(mixture of isomers)", "values": [{"measurement": "IC50", "setting": "MOLT-4", "value": 2600, "unit": "nM"}]}, {"smiles": "CN1C(C(=O)N[C@H](C=O)Cc2ccccc2)Cc2cc3c(cc2S1(=O)=O)OCCO3", "note": "(mixture of isomers)", "values": [{"measurement": "IC50", "setting": "MOLT-4", "value": 2000, "unit": "nM"}]}, {"smiles": "COc1cc2c(cc1OC)S(=O)(=O)OC(C(=O)N[C@H](C=O)Cc1ccccc1)C2", "note": "(mixture of isomers)", "values": [{"measurement": "IC50", "setting": "MOLT-4", "value": 2200, "unit": "nM"}]}]}
